Patent US8273749B2, “N-substituted oxindoline derivatives as calcium channel blockers” (Merck Sharp & Dohme Corp., priority 2007, dated 2012)

Biological target: T1, N-type calcium channel (Cav2.2) (Homo sapiens, UniProt Q00975)
T1 construct: expressed in transfected cells
Test: Cav2.2 (N-type) calcium channel block: fluorescent potassium-depolarization assay and IonWorks / PatchXpress / manual patch clamp electrophysiology
Type: cell-based
Conditions: aforementioned assays (Assay Examples 1-3); which assay or condition is not specified; read-out: IC50 in antagonizing the N-type calcium channel
Excerpt: Human Cav2.2 channels were stably expressed in HEK293 cells along with alpha2-delta and beta subunits of voltage-gated calcium channels. An inwardly rectifying potassium channel (Kir2.3) was also expressed in these cells to allow more precise control of the cell membrane potential by extracellular potassium concentration. At low bath potassium concentration, the membrane potential is relatively negative, and is depolarized as the bath potassium concentration is raised. In this way, the bath potassium concentration can be used to regulate the voltage-dependent conformations of the channels. Compounds are incubated with cells in the presence of low (4 mM) potassium or elevated (12, 25 or 30 mM) potassium to determine the affinity for compound block of resting (closed) channels at 4 mM potassium or affinity for block of open and inactivated channels at 12, 25 or 30 mM potassium. After the incubation period, Cav2.2 channel opening is triggered by addition of higher concentration of potassium (70 mM final concentration) to further depolarize the cell. The degree of state-dependent block can be estimated from the inhibitory potency of compounds after incubation in different potassium concentrations.
Calcium influx through Cav2.2 channels is determined using a calcium-sensitive fluorescent dye in combination with a fluorescent plate reader. Fluorescent changes were measured with either a VIPR (Aurora Instruments) or FLIPR (Molecular Devices) plate reader.
• 1. Seed cells in Poly-D-Lysine Coated 96- or 384-well plate and keep in a 37° C.-10% CO2 incubator overnight • 2. […] Read cell plate on VIPR instrument, Excitation=480 nm, Emission=535 nm • 9. With VIPR continuously reading, add 0.1 mL (96-well plate) or 0.03 mL (384-well plate) of Depolarization Buffer, which is 2× the final assay concentration, to the cell plate. […]
Block of N-type calcium channels is evaluated utilizing the IonWorks HT 384 well automated patch clamp electrophysiology device. […]

T1 sequence (Q00975 whole entry): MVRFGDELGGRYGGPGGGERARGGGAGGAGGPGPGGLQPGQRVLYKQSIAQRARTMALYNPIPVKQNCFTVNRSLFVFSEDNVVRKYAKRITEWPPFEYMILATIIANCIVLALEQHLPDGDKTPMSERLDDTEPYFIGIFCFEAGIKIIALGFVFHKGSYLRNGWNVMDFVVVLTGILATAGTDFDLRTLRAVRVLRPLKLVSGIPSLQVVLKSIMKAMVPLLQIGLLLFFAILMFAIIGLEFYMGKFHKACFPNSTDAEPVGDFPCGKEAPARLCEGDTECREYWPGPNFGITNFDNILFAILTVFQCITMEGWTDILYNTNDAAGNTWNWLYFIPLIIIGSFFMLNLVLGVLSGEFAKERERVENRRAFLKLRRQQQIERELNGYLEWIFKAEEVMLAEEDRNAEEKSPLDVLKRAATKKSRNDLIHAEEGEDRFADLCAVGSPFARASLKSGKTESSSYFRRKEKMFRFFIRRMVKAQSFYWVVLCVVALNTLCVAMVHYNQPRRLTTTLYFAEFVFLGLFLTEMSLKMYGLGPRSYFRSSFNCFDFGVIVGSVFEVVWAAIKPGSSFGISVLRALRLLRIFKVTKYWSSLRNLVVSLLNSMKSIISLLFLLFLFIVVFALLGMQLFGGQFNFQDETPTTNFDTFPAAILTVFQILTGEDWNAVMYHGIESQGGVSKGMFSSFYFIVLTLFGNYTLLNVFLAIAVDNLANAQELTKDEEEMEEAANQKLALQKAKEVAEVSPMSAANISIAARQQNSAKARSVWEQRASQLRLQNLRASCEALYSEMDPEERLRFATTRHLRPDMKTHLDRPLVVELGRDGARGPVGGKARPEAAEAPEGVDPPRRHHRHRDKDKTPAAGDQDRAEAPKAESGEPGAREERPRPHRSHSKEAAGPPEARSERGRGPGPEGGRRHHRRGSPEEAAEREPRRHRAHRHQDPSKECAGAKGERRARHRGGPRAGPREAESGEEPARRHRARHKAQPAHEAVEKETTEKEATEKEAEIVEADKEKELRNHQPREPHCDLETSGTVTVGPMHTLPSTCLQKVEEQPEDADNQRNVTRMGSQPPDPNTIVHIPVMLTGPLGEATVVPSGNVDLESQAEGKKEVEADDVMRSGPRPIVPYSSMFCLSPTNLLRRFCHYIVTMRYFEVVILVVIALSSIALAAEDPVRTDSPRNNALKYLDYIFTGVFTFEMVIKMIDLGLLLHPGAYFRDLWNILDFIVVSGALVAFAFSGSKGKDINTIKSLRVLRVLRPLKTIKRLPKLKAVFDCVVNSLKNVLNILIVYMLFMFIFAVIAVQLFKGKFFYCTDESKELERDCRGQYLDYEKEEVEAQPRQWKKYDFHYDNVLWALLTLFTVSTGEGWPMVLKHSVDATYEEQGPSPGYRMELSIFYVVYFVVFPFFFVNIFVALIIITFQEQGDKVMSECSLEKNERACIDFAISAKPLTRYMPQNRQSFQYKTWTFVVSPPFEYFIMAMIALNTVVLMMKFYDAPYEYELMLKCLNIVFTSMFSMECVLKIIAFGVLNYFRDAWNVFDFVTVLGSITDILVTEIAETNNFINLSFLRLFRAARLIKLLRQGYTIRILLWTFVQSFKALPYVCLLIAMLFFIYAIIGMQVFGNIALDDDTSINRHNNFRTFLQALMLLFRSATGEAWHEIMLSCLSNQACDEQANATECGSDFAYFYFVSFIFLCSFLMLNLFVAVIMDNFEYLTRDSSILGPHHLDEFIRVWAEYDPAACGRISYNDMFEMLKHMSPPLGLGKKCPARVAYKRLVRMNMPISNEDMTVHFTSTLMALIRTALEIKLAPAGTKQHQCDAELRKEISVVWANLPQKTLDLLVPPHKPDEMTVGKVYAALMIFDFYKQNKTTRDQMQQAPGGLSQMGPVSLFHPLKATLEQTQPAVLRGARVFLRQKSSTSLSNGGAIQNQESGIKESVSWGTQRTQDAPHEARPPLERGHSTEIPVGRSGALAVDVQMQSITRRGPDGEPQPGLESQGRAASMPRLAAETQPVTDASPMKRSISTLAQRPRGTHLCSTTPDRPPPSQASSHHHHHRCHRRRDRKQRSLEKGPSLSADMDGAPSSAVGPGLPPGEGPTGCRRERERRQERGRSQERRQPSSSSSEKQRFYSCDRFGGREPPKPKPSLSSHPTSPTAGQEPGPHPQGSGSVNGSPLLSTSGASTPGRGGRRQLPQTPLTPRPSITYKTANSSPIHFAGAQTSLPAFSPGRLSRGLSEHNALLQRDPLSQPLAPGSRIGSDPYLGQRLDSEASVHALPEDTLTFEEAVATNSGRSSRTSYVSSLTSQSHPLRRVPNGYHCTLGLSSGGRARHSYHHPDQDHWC

IC50 [nM] | SMILES
260 | Cn1cnc(N2C(=O)C(C)(Cc3cncnc3)c3cc(-c4cccc(OC(F)(F)F)c4)ccc32)c1 (stereo not drawn) [Example 18, 3-methyl-1-(1-methyl-1H-imidazol-4-yl)-3-pyrimidin-5-ylmethyl-5-(3-trifluoromethoxy-phenyl)-1,3-dihydro-indol-2-one]
230 | CC1(Cc2cncnc2)C(=O)N(c2nc[nH]n2)c2ccc(-c3ccc(F)c(Cl)c3)cc21 (stereo not drawn) [Example 2, 5-(3-chloro-4-fluorophenyl)-3-methyl-3-(pyrimidin-5-ylmethyl)-1-(1H-1,2,4-triazol-3-yl)-1,3-dihydro-2H-indol-2-one]
520 | CC1(Cc2cncnc2)C(=O)N(c2cnc(N)cn2)c2ccc(-c3ccc(F)c(Cl)c3)cc21 (stereo not drawn) [Example 10, 1-(5-aminopyrazin-2-yl)-5-(3-chloro-4-fluorophenyl)-3-methyl-3-(pyrimidin-5-ylmethyl)-1,3-dihydro-2H-indol-2-one]
